According to patent US20150125528A1 (The Water Initiative, LLC, priority 2012, published 2015):

Test: calcium hypochlorite stability temperature data
Type: physicochemical
Conditions: below approximately 120° C., 15 minute exposure
From the text: FIG. 2 illustrates calcium hypochlorite stability temperature data.

In the case of `[Ca+2].[O-]Cl.[O-]Cl` [calcium hypochlorite], the “free chlorine concentration on heating” value is reported as “maintains its free chlorine concentration”.
